Blank lines part the entries; values can stand above or below the compound they belong to. Active and inactive are the calls of the source.
Columns and labels:
[1] = target: T1, Heat shock factor protein 1 (Mus musculus, UniProt P38532); test: inhibition of MG132-induced HSE-luciferase signal, confirmation, cell-based, NIH3T3, luminescence, dose retest (AID 2382); format: functional;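 further: NIH3T3 fibroblasts with HSF1-driven luciferase reporter stressed by proteasome inhibitor MG132; luminescence from HSF1-driven luciferase expression after 8 hours of MG132 stress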
T1 sequence (P38532 whole entry): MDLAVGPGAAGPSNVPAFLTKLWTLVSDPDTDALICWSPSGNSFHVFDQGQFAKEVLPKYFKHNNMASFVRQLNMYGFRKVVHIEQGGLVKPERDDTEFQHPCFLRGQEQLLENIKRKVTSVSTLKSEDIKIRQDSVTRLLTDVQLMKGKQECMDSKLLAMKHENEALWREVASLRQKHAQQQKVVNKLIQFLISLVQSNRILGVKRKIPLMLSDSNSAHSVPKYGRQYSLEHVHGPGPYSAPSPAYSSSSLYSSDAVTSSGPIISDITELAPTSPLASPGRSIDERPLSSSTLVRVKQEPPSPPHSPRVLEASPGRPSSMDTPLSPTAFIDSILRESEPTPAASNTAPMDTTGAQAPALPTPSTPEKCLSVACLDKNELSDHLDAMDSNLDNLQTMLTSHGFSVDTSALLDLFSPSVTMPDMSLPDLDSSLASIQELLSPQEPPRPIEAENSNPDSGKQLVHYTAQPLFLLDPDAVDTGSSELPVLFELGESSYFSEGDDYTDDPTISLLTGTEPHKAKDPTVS

cells [2] = format: functional, cell-based
[3] = target: T2, Trace amine-associated receptor 1 (Homo sapiens, UniProt Q96RJ0); test: Fluorescence-based cell-based high throughput dose response assay to identify agonists of the human trace amine associated receptor 1 (TAAR1).; format: functional
T2 sequence (Q96RJ0 whole entry): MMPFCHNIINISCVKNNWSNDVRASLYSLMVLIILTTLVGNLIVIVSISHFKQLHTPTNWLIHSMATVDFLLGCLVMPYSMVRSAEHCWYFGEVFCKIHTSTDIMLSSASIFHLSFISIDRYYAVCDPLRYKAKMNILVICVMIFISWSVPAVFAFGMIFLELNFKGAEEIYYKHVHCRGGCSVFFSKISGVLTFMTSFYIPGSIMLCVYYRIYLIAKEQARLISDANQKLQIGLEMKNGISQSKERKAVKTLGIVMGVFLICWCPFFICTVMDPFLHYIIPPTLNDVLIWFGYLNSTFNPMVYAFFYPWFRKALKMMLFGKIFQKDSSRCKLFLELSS

[4] = target: T2, Trace amine-associated receptor 1; test: Counterscreen for agonists of the human trace amine associated receptor 1 (hTAAR1): Fluorescence-based cell-based high throughput dose response assay to identify hTAAR1 agonist that also desensitize TAAR1 receptor response.; format: functional
cells [5] = format: functional, cell-based; remark: listed apart in the source
Protein skinhead-1 = target: T3, Protein skinhead-1 (Caenorhabditis elegans, UniProt P34707); format: functional
T3 sequence (P34707 whole entry): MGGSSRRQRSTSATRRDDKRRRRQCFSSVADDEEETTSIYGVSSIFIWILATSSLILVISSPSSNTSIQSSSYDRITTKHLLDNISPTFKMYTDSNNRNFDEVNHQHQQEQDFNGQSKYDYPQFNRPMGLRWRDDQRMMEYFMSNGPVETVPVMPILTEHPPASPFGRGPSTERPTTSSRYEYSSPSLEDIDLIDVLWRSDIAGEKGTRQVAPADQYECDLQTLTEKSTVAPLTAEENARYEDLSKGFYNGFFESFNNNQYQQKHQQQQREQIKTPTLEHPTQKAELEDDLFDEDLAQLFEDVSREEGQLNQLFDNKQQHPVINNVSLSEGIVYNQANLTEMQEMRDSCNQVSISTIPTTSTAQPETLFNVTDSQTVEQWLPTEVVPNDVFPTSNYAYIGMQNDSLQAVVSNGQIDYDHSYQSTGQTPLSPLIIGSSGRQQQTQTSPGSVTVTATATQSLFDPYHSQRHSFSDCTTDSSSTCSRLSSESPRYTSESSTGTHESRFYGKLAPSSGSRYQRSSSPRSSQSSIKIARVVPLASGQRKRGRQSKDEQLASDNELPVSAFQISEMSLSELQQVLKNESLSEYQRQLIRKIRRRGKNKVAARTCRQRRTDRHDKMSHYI

Cytochrome P450 3A4 = Cytochrome P450 3A4 (Homo sapiens, UniProt P08684);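 further: CYP3A4 tested as one member of a cytochrome P450 panel screen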
[6] = target: T4, Tyrosine-protein phosphatase non-receptor type 11 (Homo sapiens, UniProt Q06124); test: SHP2 phosphatase inhibition, dose response, selectivity assay for STEP inhibitor project, biochemical (AID 602367); format: functional; conditions: read-out: IC50_Mean
T4 sequence (Q06124 whole entry): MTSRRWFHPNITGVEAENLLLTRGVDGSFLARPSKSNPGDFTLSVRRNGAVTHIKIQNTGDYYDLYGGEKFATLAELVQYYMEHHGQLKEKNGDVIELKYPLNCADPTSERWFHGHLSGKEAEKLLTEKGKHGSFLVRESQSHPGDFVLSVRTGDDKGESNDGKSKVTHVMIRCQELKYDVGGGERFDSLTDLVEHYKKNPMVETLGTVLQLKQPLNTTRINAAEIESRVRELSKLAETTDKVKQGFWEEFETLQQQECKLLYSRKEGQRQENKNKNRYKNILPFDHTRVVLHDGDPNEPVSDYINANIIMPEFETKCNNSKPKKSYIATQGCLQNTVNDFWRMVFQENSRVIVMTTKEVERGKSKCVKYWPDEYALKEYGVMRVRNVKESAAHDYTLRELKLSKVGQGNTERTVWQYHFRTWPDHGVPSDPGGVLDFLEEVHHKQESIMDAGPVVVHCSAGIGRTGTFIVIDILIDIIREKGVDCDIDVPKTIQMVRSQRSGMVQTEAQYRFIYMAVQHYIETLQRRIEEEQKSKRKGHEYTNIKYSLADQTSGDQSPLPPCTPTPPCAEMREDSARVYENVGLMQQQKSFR

[7] = target: T5, Tyrosine-protein phosphatase non-receptor type 5 (Homo sapiens, UniProt P54829); test: STEP phosphatase inhibitors, confirmation, biochemical, fluorescence intensity, uHTS hits (AID 602372); format: functional; conditions: read-out: IC50_Mean
T5 sequence (P54829 whole entry): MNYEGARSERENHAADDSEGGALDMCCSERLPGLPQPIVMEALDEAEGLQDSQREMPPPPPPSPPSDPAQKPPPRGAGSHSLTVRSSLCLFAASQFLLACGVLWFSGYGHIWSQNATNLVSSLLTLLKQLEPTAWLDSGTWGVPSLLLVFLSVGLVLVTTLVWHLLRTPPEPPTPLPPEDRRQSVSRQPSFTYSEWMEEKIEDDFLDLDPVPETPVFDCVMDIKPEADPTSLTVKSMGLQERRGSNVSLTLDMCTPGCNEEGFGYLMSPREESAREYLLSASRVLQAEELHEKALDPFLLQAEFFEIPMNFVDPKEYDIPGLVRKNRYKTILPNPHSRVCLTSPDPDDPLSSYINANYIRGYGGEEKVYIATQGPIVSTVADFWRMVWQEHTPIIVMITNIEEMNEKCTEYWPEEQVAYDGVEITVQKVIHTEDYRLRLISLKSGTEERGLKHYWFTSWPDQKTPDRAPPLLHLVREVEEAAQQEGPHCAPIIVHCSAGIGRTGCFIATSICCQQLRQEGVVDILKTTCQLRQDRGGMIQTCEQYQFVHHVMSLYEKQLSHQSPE

[8] = target: Dual specificity protein phosphatase 3 (Homo sapiens, UniProt P51452); test: VHR phosphatase inhibition, dose response, selectivity assay for STEP inhibitor project, biochemical (AID 602374); format: functional; conditions: read-out: IC50_Mean
[9] = target: T6, Sentrin-specific protease 8 (Homo sapiens, UniProt Q96LD8); format: functional
T6 sequence (Q96LD8 whole entry): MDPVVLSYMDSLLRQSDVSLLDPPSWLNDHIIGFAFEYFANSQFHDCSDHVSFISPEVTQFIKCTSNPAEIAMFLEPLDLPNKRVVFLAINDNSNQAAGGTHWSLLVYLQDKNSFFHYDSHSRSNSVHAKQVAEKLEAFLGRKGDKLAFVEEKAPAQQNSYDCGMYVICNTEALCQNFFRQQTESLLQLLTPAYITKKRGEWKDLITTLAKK

[10] = target: T6, Sentrin-specific protease 8; format: functional; remark: listed apart in the source
[11] = CEM21 lymphoblast cell cytotoxicity, dose response, cytotoxicity control for viral fusion inhibitor project, CellTiter-Glo luminescence, cherry-picked (AID 652042); format: functional, cell-based;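 further: potency for signal decrease meaning cytotoxicity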
Cytochrome P450 2C9 = Cytochrome P450 2C9 (Homo sapiens, UniProt P11712)
Fatty acid synthase [12] = target: T7, Fatty acid synthase (Homo sapiens, UniProt P49327); test: FAS thioesterase domain inhibitors, dose response, biochemical, endpoint fluorescence intensity, uHTS hits (AID 624327); format: functional;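 further: fluorescence from hydrolysis of an O-methyl fluorescein acyl ester substrate by the enzyme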
Fatty acid synthase [13] = target: T7, Fatty acid synthase; test: FAS thioesterase domain inhibitors, dose response, biochemical, kinetic fluorescence intensity (AID 624326); format: functional;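 further: rate of fluorescence rise from hydrolysis of a fluorogenic O-methyl fluorescein ester substrate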

T7 sequence (P49327 whole entry, the tested form may be a part): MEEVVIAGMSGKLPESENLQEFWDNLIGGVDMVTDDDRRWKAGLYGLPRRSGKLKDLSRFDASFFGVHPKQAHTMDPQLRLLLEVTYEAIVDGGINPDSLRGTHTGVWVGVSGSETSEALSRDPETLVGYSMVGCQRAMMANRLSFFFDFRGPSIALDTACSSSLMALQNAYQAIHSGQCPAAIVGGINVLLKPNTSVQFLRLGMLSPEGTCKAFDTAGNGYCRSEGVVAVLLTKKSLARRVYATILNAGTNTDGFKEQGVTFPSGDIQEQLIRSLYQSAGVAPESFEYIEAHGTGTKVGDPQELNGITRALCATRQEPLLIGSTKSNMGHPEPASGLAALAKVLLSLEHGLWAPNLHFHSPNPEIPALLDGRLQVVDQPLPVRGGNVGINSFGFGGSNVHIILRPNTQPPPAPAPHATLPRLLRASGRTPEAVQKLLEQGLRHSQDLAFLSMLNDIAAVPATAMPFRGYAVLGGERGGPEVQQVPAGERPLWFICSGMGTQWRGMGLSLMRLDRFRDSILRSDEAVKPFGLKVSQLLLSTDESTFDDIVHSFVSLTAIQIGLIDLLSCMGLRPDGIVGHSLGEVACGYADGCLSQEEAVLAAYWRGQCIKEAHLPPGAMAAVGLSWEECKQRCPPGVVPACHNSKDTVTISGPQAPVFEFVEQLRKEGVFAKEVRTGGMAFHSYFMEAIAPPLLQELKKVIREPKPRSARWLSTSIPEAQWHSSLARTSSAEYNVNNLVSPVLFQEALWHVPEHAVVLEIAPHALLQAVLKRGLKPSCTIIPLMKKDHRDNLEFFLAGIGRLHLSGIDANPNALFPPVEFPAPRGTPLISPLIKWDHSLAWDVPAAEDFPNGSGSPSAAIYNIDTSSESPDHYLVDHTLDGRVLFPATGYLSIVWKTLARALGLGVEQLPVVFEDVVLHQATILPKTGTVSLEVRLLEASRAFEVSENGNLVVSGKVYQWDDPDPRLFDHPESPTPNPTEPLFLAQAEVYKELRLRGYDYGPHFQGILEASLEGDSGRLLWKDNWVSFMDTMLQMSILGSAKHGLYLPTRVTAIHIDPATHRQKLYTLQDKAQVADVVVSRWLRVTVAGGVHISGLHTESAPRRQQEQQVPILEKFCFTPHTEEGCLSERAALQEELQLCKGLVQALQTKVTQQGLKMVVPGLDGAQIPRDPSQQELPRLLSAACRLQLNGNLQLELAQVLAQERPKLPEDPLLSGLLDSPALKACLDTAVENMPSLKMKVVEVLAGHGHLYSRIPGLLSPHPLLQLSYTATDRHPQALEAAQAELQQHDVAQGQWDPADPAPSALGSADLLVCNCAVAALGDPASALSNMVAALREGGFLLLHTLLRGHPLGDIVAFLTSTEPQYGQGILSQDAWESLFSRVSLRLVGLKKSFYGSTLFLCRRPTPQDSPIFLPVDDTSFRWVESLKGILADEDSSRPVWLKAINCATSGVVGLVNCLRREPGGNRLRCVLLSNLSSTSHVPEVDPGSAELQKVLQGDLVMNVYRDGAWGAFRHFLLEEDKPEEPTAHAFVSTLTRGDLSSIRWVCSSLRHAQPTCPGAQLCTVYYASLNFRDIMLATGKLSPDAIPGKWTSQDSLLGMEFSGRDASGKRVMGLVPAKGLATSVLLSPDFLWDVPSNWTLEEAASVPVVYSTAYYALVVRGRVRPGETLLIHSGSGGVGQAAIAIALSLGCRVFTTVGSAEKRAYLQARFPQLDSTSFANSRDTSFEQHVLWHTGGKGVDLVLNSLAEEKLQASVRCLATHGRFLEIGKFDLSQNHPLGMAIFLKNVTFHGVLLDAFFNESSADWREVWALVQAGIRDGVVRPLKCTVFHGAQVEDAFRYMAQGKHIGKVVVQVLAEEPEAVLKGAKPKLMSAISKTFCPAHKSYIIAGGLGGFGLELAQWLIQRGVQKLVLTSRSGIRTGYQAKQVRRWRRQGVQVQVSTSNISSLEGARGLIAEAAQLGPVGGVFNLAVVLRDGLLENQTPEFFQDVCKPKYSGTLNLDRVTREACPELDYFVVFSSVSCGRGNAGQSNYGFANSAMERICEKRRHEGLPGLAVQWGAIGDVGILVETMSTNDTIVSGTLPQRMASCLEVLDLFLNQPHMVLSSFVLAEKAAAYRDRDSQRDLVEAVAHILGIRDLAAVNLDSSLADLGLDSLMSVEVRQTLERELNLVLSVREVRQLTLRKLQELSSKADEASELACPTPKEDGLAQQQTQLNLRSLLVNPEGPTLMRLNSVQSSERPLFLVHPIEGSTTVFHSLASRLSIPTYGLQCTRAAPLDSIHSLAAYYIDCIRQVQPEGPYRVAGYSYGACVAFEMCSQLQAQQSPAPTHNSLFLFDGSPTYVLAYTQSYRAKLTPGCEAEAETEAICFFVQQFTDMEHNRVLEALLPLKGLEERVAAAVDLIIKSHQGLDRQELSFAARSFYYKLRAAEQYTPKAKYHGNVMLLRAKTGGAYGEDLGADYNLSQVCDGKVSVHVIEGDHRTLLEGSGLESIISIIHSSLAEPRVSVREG
Chain of Dual specificity protein phosphatase 3 (P51452 whole entry): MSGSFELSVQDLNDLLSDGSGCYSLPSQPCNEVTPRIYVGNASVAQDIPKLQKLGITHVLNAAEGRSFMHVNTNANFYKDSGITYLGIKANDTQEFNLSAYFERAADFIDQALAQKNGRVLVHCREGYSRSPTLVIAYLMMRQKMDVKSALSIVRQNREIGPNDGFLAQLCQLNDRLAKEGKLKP
Chain of Cytochrome P450 3A4 (P08684 whole entry): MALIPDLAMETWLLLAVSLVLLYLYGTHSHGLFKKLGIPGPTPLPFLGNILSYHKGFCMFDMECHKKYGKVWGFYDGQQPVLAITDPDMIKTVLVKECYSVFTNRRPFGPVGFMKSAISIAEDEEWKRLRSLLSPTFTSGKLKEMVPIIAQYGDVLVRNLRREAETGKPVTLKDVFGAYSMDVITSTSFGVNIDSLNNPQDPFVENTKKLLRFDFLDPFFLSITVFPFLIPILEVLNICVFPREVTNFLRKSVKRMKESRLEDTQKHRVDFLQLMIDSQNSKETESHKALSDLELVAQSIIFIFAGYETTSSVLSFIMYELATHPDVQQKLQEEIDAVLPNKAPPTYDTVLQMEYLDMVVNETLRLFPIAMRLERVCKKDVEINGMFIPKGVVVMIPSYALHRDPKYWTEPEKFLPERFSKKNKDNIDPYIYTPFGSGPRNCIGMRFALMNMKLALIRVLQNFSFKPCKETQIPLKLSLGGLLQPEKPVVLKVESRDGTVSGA
Chain of Cytochrome P450 2C9 (P11712 whole entry, the tested form may be a part): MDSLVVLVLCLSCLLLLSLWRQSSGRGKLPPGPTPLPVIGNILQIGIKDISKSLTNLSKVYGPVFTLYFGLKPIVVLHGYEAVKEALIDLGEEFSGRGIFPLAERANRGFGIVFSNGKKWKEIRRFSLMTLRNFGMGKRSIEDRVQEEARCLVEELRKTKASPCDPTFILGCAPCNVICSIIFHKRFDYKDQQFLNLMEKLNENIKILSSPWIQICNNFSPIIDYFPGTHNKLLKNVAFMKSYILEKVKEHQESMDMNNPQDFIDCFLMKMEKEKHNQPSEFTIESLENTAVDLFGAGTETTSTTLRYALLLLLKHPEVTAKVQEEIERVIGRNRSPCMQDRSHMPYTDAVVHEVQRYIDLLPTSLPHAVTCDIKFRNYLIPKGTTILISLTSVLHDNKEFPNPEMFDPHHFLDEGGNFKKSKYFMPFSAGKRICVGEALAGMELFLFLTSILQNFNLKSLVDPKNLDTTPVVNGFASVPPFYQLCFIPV

SMILES: N=C(N)SCc1ccccc1Cl
- EC50 [1]: 121 µM (active)
- IC50 (cells [2]): > 29.9 µM (inactive)
- EC50 [3]: 1.42 µM (active)
- IC50 [4]: 5.21 µM (active)
- EC50 (cells [5]): > 29.9 µM (inactive)

SMILES: CCOc1ccc(C(=S)N2CCN(C)CC2)cc1
- IC50 [6]: 3.9 µM (active)
- IC50 [7]: 24.6 µM (inactive)
- IC50 [8]: 1.42 µM (active)

SMILES: O=C1Cc2ccccc2C(=O)N1OCc1ccc(Cl)cc1
- IC50 [9]: 11.8 µM (active)
- IC50 [10]: 11 µM (active)

SMILES: C[C@@H]1C=C[C@](Cc2ccccc2)(C(=O)NCC2CC2)N1C(=O)c1ccccc1
- IC50 (Protein skinhead-1): > 100 µM (inactive)

SMILES: C=CCOc1c(Br)cc(CNc2ccc(NC(=O)C(C)C)c(OC)c2)cc1OC
- AC50 [11]: 63.1 µM (active)
- AC50 (Cytochrome P450 2C9): 0.00562 µM (inconclusive)

SMILES: CCCCCn1c(CN2CCN(c3cccc(Cl)c3)CC2)nc2c1c(=O)n(C)c(=O)n2C
- IC50 (Fatty acid synthase [12]): 3.96 µM (active)
- IC50 (Fatty acid synthase [13]): 4.64 µM (active)

Other lines, results leading:

- IC50 (Protein skinhead-1): > 100 µM (inactive)
- AC50 (Cytochrome P450 3A4): inconclusive
SMILES: CSc1ccc(NC(=O)NCCCN2CCN(c3ccccc3F)CC2)cc1

- IC50 [6]: 17.9 µM (active)
- IC50 [7]: > 80 µM (inactive)
- IC50 [8]: 3.44 µM (active)
SMILES: CC(=O)N1CCC(N(CCN2CCOCC2)C(=S)Nc2ccc(C)cc2)CC1

- IC50 (Fatty acid synthase [12]): 2.18 µM (active)
- IC50 (Fatty acid synthase [13]): 1.64 µM (active)
SMILES: CC(NC(=O)Nc1cccc([N+](=O)[O-])c1)c1ccc2c(c1)OCO2 (centres undefined)

- IC50 (Fatty acid synthase [12]): 1.1 µM (active)
- IC50 (Fatty acid synthase [13]): 0.778 µM (active)
SMILES: O=C(COc1cc([N+](=O)[O-])cc2cccnc12)NCCC1=CCCCC1

From ChEMBL document CHEMBL1201862, “PubChem BioAssay data set” (2004)
